Experimental data taken from ChEMBL document CHEMBL1201862, “PubChem BioAssay data set” (2004).
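Each compound was tested at five concentrations against cells in 96-well plates for 48 hours. GI50: concentration for 50% inhibition of growth.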 Active and inactive are the calls of the source. Cut-off read from the data, not from the text of the source: active = GI50 up to about 1.1 µM and inactive = higher.

How the values were obtained:
Test in all cases: DTP human tumour cell line panel, 48 h
IGROV-1 = tested on: IGROV-1
HT-29 = tested on: HT-29
CAKI-1 = tested on: CAKI-1
M14 = tested on: M14
NCI-H226 = tested on: NCI-H226
OVCAR-8 = tested on: OVCAR-8
OVCAR-5 = tested on: OVCAR-5
MOLT-4 = tested on: MOLT-4
HOP-62 = tested on: HOP-62
K562 = tested on: K562
HCT-116 = tested on: HCT-116
SR = tested on: SR
HCT-15 = tested on: HCT-15
MDA-N = tested on: MDA-N
BT-549 = tested on: BT-549
SF-268 = tested on: SF-268
MDA-MB-231 = tested on: MDA-MB-231
CCRF-CEM = tested on: CCRF-CEM
SN12C = tested on: SN12C

| SMILES | GI50 (IGROV-1) | GI50 (HT-29) | GI50 (CAKI-1) | GI50 (M14) | GI50 (NCI-H226) | GI50 (OVCAR-8) | GI50 (OVCAR-5) | GI50 (MOLT-4) | GI50 (HOP-62) | GI50 (K562) | GI50 (HCT-116) | GI50 (SR) | GI50 (HCT-15) [µM] | GI50 (MDA-N) | GI50 (BT-549) | GI50 (SF-268) | GI50 (MDA-MB-231) | GI50 (CCRF-CEM) | GI50 (SN12C) |
| --- | --- | --- | --- | --- | --- | --- | --- | --- | --- | --- | --- | --- | --- | --- | --- | --- | --- | --- | --- |
| C=CC(c1ccccc1)C1(O)c2cccc(O)c2C(=O)c2c(O)cccc21 (stereo not drawn) | 14.9 µM (inactive) | 11.5 µM (inactive) | 16.7 µM (inactive) | 18.4 µM (inactive) | 19.4 µM (inactive) | 19.7 µM (inactive) | 22.1 µM (inactive) | 11.9 µM (inactive) | 17.3 µM (inactive) | 6.64 µM (inactive) | 11.5 µM (inactive) | 5.89 µM (inactive) | 10.8 | 5.57 µM (inactive) | 16.7 µM (inactive) | 17.3 µM (inactive) | 18.3 µM (inactive) |  |  |
| N#CCCN(CCCN(C(=O)Nc1ccc(NC(=O)N(CCCN(CCC#N)C(N)=O)c2ccccc2)cc1)c1ccccc1)C(N)=O |  | > 100 µM (inactive) | > 100 µM (inactive) | > 100 µM (inactive) | > 100 µM (inactive) | > 100 µM (inactive) | > 100 µM (inactive) | > 100 µM (inactive) | > 100 µM (inactive) | > 100 µM (inactive) | > 100 µM (inactive) | > 100 µM (inactive) | > 100 | > 100 µM (inactive) | > 100 µM (inactive) | > 100 µM (inactive) | > 100 µM (inactive) | 87.5 µM (inactive) |  |
| CCSCC(N)C(=O)O (stereo not drawn) | > 100 µM (inactive) | > 100 µM (inactive) | > 100 µM (inactive) | > 100 µM (inactive) | > 100 µM (inactive) | > 100 µM (inactive) | > 100 µM (inactive) |  | > 100 µM (inactive) |  | > 100 µM (inactive) | > 100 µM (inactive) | > 100 | > 100 µM (inactive) | > 100 µM (inactive) | > 100 µM (inactive) | > 100 µM (inactive) | > 100 µM (inactive) | > 100 µM (inactive) |
| CO[C@H](c1ccccc1)[C@H](O)[C@](O)(c1ccccc1)P(=O)(OC)OC | > 100 µM (inactive) | > 100 µM (inactive) | > 100 µM (inactive) | > 100 µM (inactive) | > 100 µM (inactive) | > 100 µM (inactive) | > 100 µM (inactive) | > 100 µM (inactive) |  | > 100 µM (inactive) | > 100 µM (inactive) | > 100 µM (inactive) | > 100 | > 100 µM (inactive) | > 100 µM (inactive) | > 100 µM (inactive) | > 100 µM (inactive) | > 100 µM (inactive) | > 100 µM (inactive) |
| Cc1nc(-c2ccc(/N=C/c3ccc(N(CCOS(C)(=O)=O)CCOS(C)(=O)=O)cc3C)cc2)cs1 | 28.8 µM (inactive) | 30.3 µM (inactive) |  | 60 µM (inactive) | 5.71 µM (inactive) | 51.9 µM (inactive) | 30.8 µM (inactive) | 2.09 µM (inactive) | 35.1 µM (inactive) | 26.5 µM (inactive) | 34.8 µM (inactive) | 9.51 µM (inactive) | 77.6 | 46 µM (inactive) | 28.2 µM (inactive) | 5.14 µM (inactive) | 72.8 µM (inactive) | 3.65 µM (inactive) | 27.8 µM (inactive) |
| CCCCCCCCCCCCCCCC(=O)OC(COC(C)=O)CO[PH](=O)O (stereo not drawn) | 22.3 µM (inactive) |  | 41.9 µM (inactive) | 14.7 µM (inactive) |  | 18.1 µM (inactive) | 16.1 µM (inactive) | 31.3 µM (inactive) |  | > 100 µM (inactive) |  | 24.9 µM (inactive) | 24 | 31.3 µM (inactive) | > 100 µM (inactive) | 19.3 µM (inactive) | 21.7 µM (inactive) | 37.2 µM (inactive) | 48.5 µM (inactive) |
| O[C@@H]1C[C@H](Cl)c2c(Cl)sc(Cl)c21 | > 100 µM (inactive) | > 100 µM (inactive) | > 100 µM (inactive) | > 100 µM (inactive) |  | > 100 µM (inactive) | > 100 µM (inactive) | > 100 µM (inactive) | > 100 µM (inactive) | > 100 µM (inactive) | > 100 µM (inactive) | > 100 µM (inactive) | > 100 | > 100 µM (inactive) | > 100 µM (inactive) | > 100 µM (inactive) | > 100 µM (inactive) | > 100 µM (inactive) | > 100 µM (inactive) |
| O=C1/C(=C/c2ccc(Br)s2)NC(=S)N1CN1CCOCC1 | 57.4 µM (inactive) | 35.2 µM (inactive) | 25.2 µM (inactive) |  | 34.5 µM (inactive) | 61.5 µM (inactive) | 61.1 µM (inactive) | 32.7 µM (inactive) | > 100 µM (inactive) | 25.8 µM (inactive) | 31.8 µM (inactive) | 21.5 µM (inactive) | 30.2 | 52 µM (inactive) | 34 µM (inactive) | 87.7 µM (inactive) | 99.8 µM (inactive) |  | 45.4 µM (inactive) |
| CSc1nc(SC)c2c(C)cn(Cc3ccccc3)c2n1 | > 100 µM (inactive) | 41.7 µM (inactive) | > 100 µM (inactive) | > 100 µM (inactive) | > 100 µM (inactive) | > 100 µM (inactive) | > 100 µM (inactive) | 39 µM (inactive) | > 100 µM (inactive) |  | 69.2 µM (inactive) | 32.4 µM (inactive) | 70.1 | 30.3 µM (inactive) | > 100 µM (inactive) | > 100 µM (inactive) | > 100 µM (inactive) | 51.4 µM (inactive) | > 100 µM (inactive) |
| Cc1ccc(S(=O)(=O)NC(=O)NC(Cc2ccc(O)cc2)C(=O)O)cc1 (stereo not drawn) | > 100 µM (inactive) | > 100 µM (inactive) |  | > 100 µM (inactive) |  | > 100 µM (inactive) | > 100 µM (inactive) | > 100 µM (inactive) | > 100 µM (inactive) | > 100 µM (inactive) | > 100 µM (inactive) | > 100 µM (inactive) | > 100 | > 100 µM (inactive) | > 100 µM (inactive) | > 100 µM (inactive) | > 100 µM (inactive) | > 100 µM (inactive) | > 100 µM (inactive) |
| CN(C)CCNC(=O)C(C)(C)Oc1ccc(C(=O)c2ccc(Cl)cc2)cc1Cl | 11.9 µM (inactive) | 2.56 µM (inactive) | 13.1 µM (inactive) | 2.45 µM (inactive) | 14.7 µM (inactive) | 11.8 µM (inactive) | 15.1 µM (inactive) | 12 µM (inactive) | 11.5 µM (inactive) |  | 7.4 µM (inactive) | 6.84 µM (inactive) | 3.3 | 4.45 µM (inactive) | 11.5 µM (inactive) | 13.7 µM (inactive) | 10.9 µM (inactive) | 33.4 µM (inactive) | 13.4 µM (inactive) |
| COc1cccc(/C=C2\N=C(c3ccccc3)OC2=O)c1 | 34.1 µM (inactive) | > 100 µM (inactive) | > 100 µM (inactive) | 81.3 µM (inactive) | 37.8 µM (inactive) | 64.4 µM (inactive) | > 100 µM (inactive) |  | 61.1 µM (inactive) | 71.1 µM (inactive) | > 100 µM (inactive) | 23.1 µM (inactive) | 34 | 47.2 µM (inactive) | 40.6 µM (inactive) | > 100 µM (inactive) | > 100 µM (inactive) | 25 µM (inactive) | 65.2 µM (inactive) |
